Measured values taken from ChEMBL document CHEMBL1201861, “Genomics of Drug Sensitity in Cancer screening data, Wellcome Trust Sanger Institute”.

Legend:
CPC-N = experiment: cells; format: functional, cell-based, Homo sapiens; settings: cpc-n;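 note: growth inhibition of CPC-N cells, with a cell viability assay as the readout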
Description: SANGER: Inhibition of human CPC-N cell growth in a cell viability assay.

Calu-1 = experiment: SANGER: Inhibition of human Calu-1 cell growth in a cell viability assay.; format: functional, cell-based; settings: calu-1
DMS-53 = experiment: cells; format: functional, cell-based, Homo sapiens; settings: dms-53;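 note: cell viability assay measuring growth inhibition of human DMS-53 cells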
Description: SANGER: Inhibition of human DMS-53 cell growth in a cell viability assay.

DV-90 = experiment: cells; format: functional, cell-based, Homo sapiens; settings: dv-90;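 note: Read-out is a viability assay, with IC50 reflecting the drop in DV-90 cell growth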
Description: SANGER: Inhibition of human DV-90 cell growth in a cell viability assay.

EW-7 = experiment: SANGER: Inhibition of human EW-7 cell growth in a cell viability assay.; format: functional, cell-based; settings: ew-7
G-402 = experiment: cells; format: functional, cell-based, Homo sapiens; settings: g-402
Description: SANGER: Inhibition of human G-402 cell growth in a cell viability assay.

HCC38 = experiment: cells; format: functional, cell-based, Homo sapiens; settings: hcc38;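 note: cell viability assay on the human HCC38 cell line, with IC50 marking the concentration that inhibits cell growth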
Description: SANGER: Inhibition of human HCC38 cell growth in a cell viability assay.

HMV-2 cell line = experiment: cells; format: functional, cell-based, Homo sapiens; settings: hmv-2;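 note: growth inhibition of HMV-II cells, read out with a cell viability assay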
Description: SANGER: Inhibition of human HMV-II cell growth in a cell viability assay.

IGROV-1 = experiment: cells; format: functional, cell-based, Homo sapiens; settings: igrov-1;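 note: reduction of IGROV-1 cell growth, read out with a viability assay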
Description: SANGER: Inhibition of human IGROV-1 cell growth in a cell viability assay.

IM-9 = experiment: SANGER: Inhibition of human IM-9 cell growth in a cell viability assay.; format: functional, cell-based; settings: im-9
IPC-298 = experiment: SANGER: Inhibition of human IPC-298 cell growth in a cell viability assay.; format: functional, cell-based; settings: ipc-298
JIYOYE = experiment: cells; format: functional, cell-based, Homo sapiens; settings: jiyoye
Description: SANGER: Inhibition of human JiyoyeP-2003 cell growth in a cell viability assay.

LoVo = experiment: cells; format: functional, cell-based, Homo sapiens; settings: lovo;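 note: growth inhibition of human LoVo cells, read out with a cell viability assay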
Description: SANGER: Inhibition of human LoVo cell growth in a cell viability assay.

MCF7 = experiment: cells; format: functional, cell-based, Homo sapiens; settings: mcf7;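 note: growth inhibition of human MCF7 cells, read out with a cell viability assay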
Description: SANGER: Inhibition of human MCF7 cell growth in a cell viability assay.

MDA-MB-468 = experiment: cells; format: functional, cell-based, Homo sapiens; settings: mda-mb-468
Description: SANGER: Inhibition of human MDA-MB-468 cell growth in a cell viability assay.

MEL-JUSO = experiment: cells; format: functional, cell-based, Homo sapiens; settings: mel-juso;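 note: growth inhibition of human MEL-JUSO cells, read out with a cell viability assay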
Description: SANGER: Inhibition of human MEL-JUSO cell growth in a cell viability assay.

MFE-296 = experiment: SANGER: Inhibition of human MFE-296 cell growth in a cell viability assay.; format: functional, cell-based; settings: mfe-296
MKN-28 = experiment: cells; format: functional, cell-based, Homo sapiens; settings: mkn-28;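 note: cell viability assay read-out, IC50 reflects suppression of growth of human MKN-28 cells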
Description: SANGER: Inhibition of human MKN28 cell growth in a cell viability assay.

NCI-H1522 = experiment: cells; format: functional, cell-based, Homo sapiens; settings: nci-h1522;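 note: growth inhibition of NCI-H1522 cells, read out with a cell viability assay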
Description: SANGER: Inhibition of human NCI-H1522 cell growth in a cell viability assay.

NCI-H187 = experiment: cells; format: functional, cell-based, Homo sapiens; settings: nci-h187;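 note: growth inhibition of NCI-H187 cells, read out as cell viability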
Description: SANGER: Inhibition of human NCI-H187 cell growth in a cell viability assay.

NCI-H2009 = experiment: cells; format: functional, cell-based, Homo sapiens; settings: nci-h2009;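 note: cell viability assay measuring inhibition of NCI-H2009 cell growth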
Description: SANGER: Inhibition of human NCI-H2009 cell growth in a cell viability assay.

NCI-H2452 = experiment: cells; format: functional, cell-based, Homo sapiens; settings: nci-h2452;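 note: growth inhibition of NCI-H2452 cells, read out with a cell viability assay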
Description: SANGER: Inhibition of human NCI-H2452 cell growth in a cell viability assay.

PFSK-1 = experiment: cells; format: functional, cell-based, Homo sapiens; settings: pfsk-1;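 note: cell viability assay measuring how strongly compounds suppress growth of human PFSK-1 cells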
Description: SANGER: Inhibition of human PFSK-1 cell growth in a cell viability assay.

PLC-PRF-5 = experiment: cells; format: functional, cell-based, Homo sapiens; settings: plc-prf-5;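 note: growth inhibition of human PLC-PRF-5 cells, read out with a viability assay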
Description: SANGER: Inhibition of human PLC-PRF-5 cell growth in a cell viability assay.

REH = experiment: cells; format: functional, cell-based, Homo sapiens; settings: reh;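 note: growth inhibition of REH cells determined with a cell viability read-out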
Description: SANGER: Inhibition of human REH cell growth in a cell viability assay.

Raji = experiment: cells; format: functional, cell-based, Homo sapiens; settings: raji;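 note: cell viability assay measuring inhibition of Raji cell growth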
Description: SANGER: Inhibition of human Raji cell growth in a cell viability assay.

SIG-M5 = experiment: cells; format: functional, cell-based, Homo sapiens; settings: sig-m5;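 note: cell viability assay read-out, measuring how strongly growth of cultured human SIG-M5 cells is inhibited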
Description: SANGER: Inhibition of human SIG-M5 cell growth in a cell viability assay.

SUP-T1 = experiment: cells; format: functional, cell-based, Homo sapiens; settings: sup-t1;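 note: growth inhibition of human SUP-T1 cells, read out as cell viability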
Description: SANGER: Inhibition of human SUP-T1 cell growth in a cell viability assay.

T47D = experiment: cells; format: functional, cell-based, Homo sapiens; settings: t47d;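 note: growth inhibition of human T47D cells, measured with a cell viability assay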
Description: SANGER: Inhibition of human T47D cell growth in a cell viability assay.

A-375 = experiment: cells; format: functional, cell-based, Homo sapiens; settings: a-375;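 note: growth inhibition of A375 cells, read out with a cell viability assay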
Description: SANGER: Inhibition of human A375 cell growth in a cell viability assay.

ARH-77 = experiment: cells; format: functional, cell-based, Homo sapiens; settings: arh-77;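 note: growth inhibition of ARH-77 cells, read out by a cell viability assay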
Description: SANGER: Inhibition of human ARH-77 cell growth in a cell viability assay.

BHT-101 = experiment: cells; format: functional, cell-based, Homo sapiens; settings: bht-101
Description: SANGER: Inhibition of human BHT-101 cell growth in a cell viability assay.

C32 = experiment: cells; format: functional, cell-based, Homo sapiens; settings: c32;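 note: cell viability assay, with IC50 reflecting inhibition of C32 cell growth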
Description: SANGER: Inhibition of human C32 cell growth in a cell viability assay.

CAL-148 = experiment: cells; format: functional, cell-based, Homo sapiens; settings: cal-148
Description: SANGER: Inhibition of human CAL-148 cell growth in a cell viability assay.

TT = experiment: cells; format: functional, cell-based, Homo sapiens; settings: tt
Description: SANGER: Inhibition of human TT cell growth in a cell viability assay.

UO-31 = experiment: cells; format: functional, cell-based, Homo sapiens; settings: uo-31
Description: SANGER: Inhibition of human U031 cell growth in a cell viability assay.

YT = experiment: cells; format: functional, cell-based, Homo sapiens; settings: yt
Description: SANGER: Inhibition of human YT cell growth in a cell viability assay.

CCF-STTG1 = experiment: cells; format: functional, cell-based, Homo sapiens; settings: ccf-sttg1;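 note: growth inhibition of human CCF-STTG1 cells, determined with a cell viability read-out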
Description: SANGER: Inhibition of human CCF-STTG1 cell growth in a cell viability assay.

CHP-212 = experiment: cells; format: functional, cell-based, Homo sapiens; settings: chp-212
Description: SANGER: Inhibition of human CHP-212 cell growth in a cell viability assay.

BLEOMYCIN
IC50 (CPC-N): 52.5 µM | IC50 (Calu-1): 5.14 µM | IC50 (DMS-53): 319 µM | IC50 (DV-90): 182 µM | IC50 (EW-7): 3.06 µM | IC50 (G-402): 0.0765 µM | IC50 (HCC38): 0.0312 µM | IC50 (HMV-2 cell line): 0.0697 µM | IC50 (IGROV-1): 0.145 µM | IC50 (IM-9): 4.13 µM | IC50 (IPC-298): 2.21 µM | IC50 (JIYOYE): 3.38 µM | IC50 (LoVo): 0.0712 µM | IC50 (MCF7): 1.17 µM | IC50 (MDA-MB-468): 67.6 µM | IC50 (MEL-JUSO): 0.109 µM | IC50 (MFE-296): 0.153 µM | IC50 (MKN-28): 0.00108 µM | IC50 (NCI-H1522): 2450 µM | IC50 (NCI-H187): 8790 µM | IC50 (NCI-H2009): 2.56 µM | IC50 (NCI-H2452): 2140 µM | IC50 (PFSK-1): 33.4 µM | IC50 (PLC-PRF-5): 281 µM | IC50 (REH): 0.0134 µM | IC50 (Raji): 1.85 µM | IC50 (SIG-M5): 0.586 µM | IC50 (SUP-T1): 0.000251 µM | IC50 (T47D): 168 µM | IC50 (A-375): 0.0711 µM | IC50 (ARH-77): 0.105 µM | IC50 (BHT-101): 7.34 µM | IC50 (C32): 471 µM | IC50 (CAL-148): 4.6 µM | IC50 (TT): 59.2 µM | IC50 (UO-31): 0.934 µM | IC50 (YT): 1.32 µM | IC50 (CCF-STTG1): 4.56 µM | IC50 (CHP-212): 0.148 µM
